In the assay the test system is Clostridium difficile clinical isolate growth, OD600, 24 h. Kind of assay: growth modulation of Clostridium difficile isolate – OD600, 9-point, retest, dose response (AID 1224920).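 Also: inhibitors lower culture turbidity so OD600 falls.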

Where “and” joins values, the source holds several entries; their conditions need not be identical. Identical values can stand only once.

What is called IC50 is the concentration that gives 50% inhibition. Regarding `C(=C\c1ccc(C2[C@@H]3CN(Cc4cccnc4)C[C@H]2N3)cc1)/c1ccccc1` (stereo not given in full), the IC50 is 52.1 µM and 56.8 µM. As to `O=C(Nc1ccccc1F)N1C[C@@H]2N[C@H](C1)C2c1ccc(/C=C/c2ccccc2)cc1` (stereo not given in full), the IC50 was 12.5 µM.

Regarding `COc1cc(CN2[C@@H]3CNC[C@H]2C3c2ccc(-c3ccccc3)cc2)cc(OC)c1` (stereo not given in full), the IC50 is 14.8 µM. As for `Cc1ccc(-c2ccc(C3[C@@H]4CN(S(=O)(=O)c5cccc(C)c5)C[C@H]3N4)cc2)cc1` (stereo not given in full), the figure is 8.64 µM; as for `O=C(C[C@@H]1CC[C@@H]2[C@H](COC[C@@H](O)CN2C(=O)Nc2ccc(C(F)(F)F)cc2)O1)NC1Cc2ccccc2C1`, 6.53 µM; as for `O=S(=O)(Cc1ccccc1)N1CCCCN2[C@H](CO)[C@H](c3ccc(-c4ccc(F)cc4)cc3)[C@H]2C1`, 42.5 µM. The figure for `O=C(Nc1ccc(C(F)(F)F)cc1)N1C[C@@H]2N[C@H](C1)C2c1ccc(-c2cccc(F)c2)cc1` (stereo not given in full) is 2.63 µM and 2.5 µM; for `COc1cccc(CN2[C@@H]3CNC[C@H]2C3c2ccc(-c3cccc(OC)c3)cc2)c1` (stereo not given in full) it is 13.3 µM.

`Cc1ccc(-c2ccc(C3[C@@H]4CN(C(=O)Nc5ccc(C(F)(F)F)cc5)C[C@H]3N4)cc2)cc1` (stereo not given in full): the IC50 was 4.49 µM and 2.49 µM.

With `COc1ccccc1C#Cc1ccc2c(c1)[C@H]1[C@H](CCN1C(=O)c1ccc(F)cc1)[C@@H](CO)N2`, the IC50 was less than 0.5 µM. The figure for `C(=C\c1ccc(C2[C@H]3CNC[C@@H]2N3Cc2nccs2)cc1)/c1ccccc1` (stereo not given in full) is 60.4 µM.

Take `CCNC(=O)C[C@@H]1CC[C@@H]2[C@H](COC[C@H](O)CN2C(=O)Nc2ccc(C(F)(F)F)cc2)O1`: the IC50 was 16.1 µM. In the case of `COc1ccc(C#Cc2ccc([C@@H]3[C@@H](CO)N4CCCCN(Cc5ccccc5F)C[C@H]34)cc2)cc1`, the IC50 was 7.31 µM. The figure for `COc1ccccc1CN1C[C@@H]2N[C@H](C1)C2c1ccc(-c2ccccc2OC)cc1` (stereo not given in full) is 35.3 µM and 38.3 µM; for `Fc1cccc(CN2C[C@@H]3N[C@H](C2)C3c2ccc(-c3ccccc3)cc2)c1` (stereo not given in full) it is 8.38 µM and 10.4 µM. The figure for `O=S(=O)(c1ccc(F)cc1)N1C[C@@H]2N[C@H](C1)C2c1ccc(-c2ccc(F)cc2)cc1` (stereo not given in full) is 128 µM. As to `CCNC(=O)C[C@@H]1CC[C@H]2[C@@H](COC[C@@H](O)CN2C(=O)Nc2ccc(C(F)(F)F)cc2)O1`, the IC50 was 12.2 µM. On to `Fc1cccc(CN2C[C@@H]3N[C@H](C2)[C@@H]3c2ccc(-c3cccc(F)c3)cc2)c1`, for which the IC50 is 6.05 µM. Turning to `OC[C@H]1Nc2ccc(-c3ccc(F)cc3)cc2[C@@H]2[C@H]1CCN2Cc1ccc(F)cc1`, the IC50 was 26.8 µM. For the molecule `Cc1ccc(-c2ccc([C@H]3[C@@H](CO)N4CCCCN(C(=O)Nc5cccc(F)c5)C[C@H]34)cc2)cc1`, the IC50 was 4.44 µM. For the molecule `O=C(C[C@@H]1CC[C@H]2[C@@H](COC[C@@H](O)CN2C(=O)Nc2ccc(C(F)(F)F)cc2)O1)NCC1CCCCC1`, the IC50 is 7.5 µM. The figure for `O=C(Nc1ccccc1)N1CCCCN2[C@H](CO)[C@H](c3ccc(C#Cc4ccccc4)cc3)[C@H]2C1` is 9.4 µM. For the molecule `COc1ccc(S(=O)(=O)N2CCCCN3[C@H](CO)[C@H](c4ccc(C5=CCCCC5)cc4)[C@H]3C2)cc1`, the IC50 was 29.5 µM. With `Cc1ccc(-c2ccc([C@@H]3[C@@H](CO)N4CCCCN(C(=O)c5ccc(F)cc5)C[C@H]34)cc2)cc1`, the IC50 was 34.4 µM.

Consider `Cc1ccccc1-c1ccc(C2[C@@H]3CN(C(=O)NC4CCCCC4)C[C@H]2N3)cc1` (stereo not given in full), for which the IC50 was 57.7 µM. As to `COc1ccccc1NC(=O)N1CCCCN2[C@@H](CO)[C@@H](c3ccc(-c4ccc(C)cc4)cc3)[C@@H]2C1`, the IC50 was 28.7 µM. Take `Cc1ccc(-c2ccc(C3[C@H]4CNC[C@@H]3N4C(=O)Nc3ccc(F)cc3)cc2)cc1` (stereo not given in full): the IC50 was 64.4 µM.

`COc1ccc(NC(=O)N2CCCCN3[C@H](CO)[C@H](c4ccc(C#Cc5ccccc5)cc4)[C@H]3C2)cc1`: the IC50 is 27.5 µM. As for `Cc1ccccc1-c1ccc(C2[C@@H]3CN(C(=O)Cc4ccccc4)C[C@H]2N3)cc1` (stereo not given in full), the figure is 62.1 µM and 68.3 µM. As for `Cc1ccccc1-c1ccc(C2[C@@H]3CN(Cc4cocn4)C[C@H]2N3)cc1` (stereo not given in full), the figure is 45.5 µM.
